For one data set, the target named is T1, AtIPT1 (Arabidopsis thaliana, UniProt Q94ID3).
T1 construct: made in house
T1 sequence (Q94ID3 72-357): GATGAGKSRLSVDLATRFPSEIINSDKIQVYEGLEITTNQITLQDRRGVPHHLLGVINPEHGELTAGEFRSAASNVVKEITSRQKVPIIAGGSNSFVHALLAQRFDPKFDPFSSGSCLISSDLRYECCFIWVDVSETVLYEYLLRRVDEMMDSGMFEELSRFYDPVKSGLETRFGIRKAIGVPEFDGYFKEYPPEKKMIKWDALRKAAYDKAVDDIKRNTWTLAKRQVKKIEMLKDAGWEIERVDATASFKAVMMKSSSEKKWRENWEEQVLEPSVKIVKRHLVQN
The data set is described as follows: Enzyme activity of AtIPT1 protein (dimethylallyl transfer). It counts as biochemical.

The target of another data set is T2, AtIPT4 (Arabidopsis thaliana, UniProt Q9SB60).
T2 construct: made in house
T2 sequence (Q9SB60 1-318): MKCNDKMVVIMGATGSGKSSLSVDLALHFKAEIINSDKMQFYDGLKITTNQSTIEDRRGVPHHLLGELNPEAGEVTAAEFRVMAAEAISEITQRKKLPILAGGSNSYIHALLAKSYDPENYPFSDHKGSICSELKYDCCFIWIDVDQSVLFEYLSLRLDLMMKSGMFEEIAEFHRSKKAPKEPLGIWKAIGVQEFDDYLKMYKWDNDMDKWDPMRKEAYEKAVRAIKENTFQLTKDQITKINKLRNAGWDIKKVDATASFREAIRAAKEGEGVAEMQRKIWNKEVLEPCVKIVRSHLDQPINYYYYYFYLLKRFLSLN
As to the kind of experiment: Enzyme activity of purified AtIPT4 protein (dimethylallyl transfer, Km). Format: biochemical. The note with it: for transfer of the dimethylallyl group of DMAPP to the substrate: 3H-labeled substrate at 0.25 μM, Ni-NTA bound AtIPT4 (Sample D), 30 minutes at 23° C. On the procedure:
This was designated as Sample A. 400 μl of Ni-NTA agarose suspension (containing 110 μl of Ni-NTA agarose as precipitate, 30 mM NaH2PO4 (pH 8), […], 0.9 M NaCl, 7.5 mM β-mercaptoethanol, 0.5 mM PMSF and 30 μg/ml of leupeptin) were added to 800 μl of Sample A. This suspension was designated as Sample B. Sample B was then centrifuged to separate into supernatant (Sample C) and precipitate. Washing liquid (consisting of 20 mM NaH2PO4 (pH 8), […], 0.3 M NaCl, 5 mM β-mercaptoethanol, 0.5 mM PMSF and 10 μg/ml of leupeptin) was added to the precipitate, and the Ni-NTA agarose was washed four times using a procedure in which the precipitate was recovered by centrifugation. […] After adding 700 μl of ethyl acetate to this reaction liquid followed by stirring and centrifuging, 550 μl of the ethyl acetate layer were recovered followed by the addition of 500 μl of distilled water. After stirring and centrifugal separation, 350 μl of the ethyl acetate layer were recovered followed again by the addition of 500 μl of distilled water. After again stirring and separating by centrifugation, 0.5 ml of ACSII (Pharmacia) were added to 50 μl of the ethyl acetate layer followed by measurement of radioactivity with a liquid scintillation counter.

In the next data set the target is tzs (Agrobacterium fabrum, UniProt P58758). The note with it: read-out: Km of tzs for AMP; cited from earlier work.
Sequence of tzs (P58758 whole entry): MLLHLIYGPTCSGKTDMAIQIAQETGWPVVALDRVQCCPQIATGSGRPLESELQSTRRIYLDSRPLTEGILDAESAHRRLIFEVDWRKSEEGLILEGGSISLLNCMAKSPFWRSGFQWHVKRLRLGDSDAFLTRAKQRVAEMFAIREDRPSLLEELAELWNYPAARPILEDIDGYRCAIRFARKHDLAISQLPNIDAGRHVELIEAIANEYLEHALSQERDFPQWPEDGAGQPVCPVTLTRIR
Substrate in data set [1]: CC(C)=CCOP(=O)(O)OP(=O)(O)O
The data set is described as follows: purified protein, by the assay type. The note with it: other: in the presence of 200 μM ATP; purified recombinant AtIPT4 protein; 23.0 °C.

On to `Nc1ncnc2c1ncn2[C@@H]1O[C@H](COP(=O)(O)OP(=O)(O)O)[C@@H](O)[C@H]1O` [ADP], for which the “transfer of a dimethylallyl group to the substrate” value at AtIPT1 is “activity that transfers a dimethylallyl group”. Further, the “transfer of the dimethylallyl group of DMAPP to the substrate” value on AtIPT4 is given as “efficiently transferred”.
Turning to `Nc1ncnc2c1ncn2[C@@H]1O[C@H](COP(=O)(O)O)[C@@H](O)[C@H]1O` [AMP, adenosine monophosphate], the Km at tzs is 11.1 µM.
Take `Nc1ncnc2c1ncn2[C@@H]1O[C@H](COP(=O)(O)OP(=O)(O)OP(=O)(O)O)[C@@H](O)[C@H]1O` [ATP]: on AtIPT1, the “transfer of a dimethylallyl group to the substrate” value is “activity that transfers a dimethylallyl group”. Moreover, the “transfer of the dimethylallyl group of DMAPP to the substrate” value on AtIPT4 is reported as “efficiently transferred”. Besides, on AtIPT4 (in the presence of 0.4 mM DMAPP, purified recombinant AtIPT4 protein (2 ng/ml), read-out: Km for ATP), the Km was roughly 11.1 µM.

B1: AtIPT4 (Arabidopsis thaliana) (protein)
chain: T2 sequence (Q9SB60 1-318)
For the molecule B1, in data set [1], the Km worked out at 6.5 µM.

What is called Km is the substrate concentration at which the rate is half of its maximum.
